Results: patent US20040018983A1, “Antifungal compositions” (Achillion Pharmaceuticals, Inc., priority 2001, published 2004)
≈ marks a conversion by molar mass, not a printed value. Like-named read-outs stand apart in the source and are kept apart here.

Tested on: C. albicans
Assay: Fungal susceptibility to zinc finger selective antifungals: broth microdilution growth inhibition (OD 405 nm), with and without a zinc finger blocking compound
Format: cell-based, Candida albicans
Settings: for blocking of antifungal action by glutathione and cysteine (zinc finger mechanism): discussion of Table 2; for MIC: Candida albicans, 48 h, read-out: C. albicans MIC; for Fold Increase: increase of MIC with blocking compound (cysteine or glutathione) over MIC alone; for C. albicans MIC + 200 μg/ml cysteine: with 200 μg/ml cysteine as zinc finger blocking compound; for C. albicans MIC + 200 μg/ml glutathione: with 200 μg/ml glutathione as zinc finger blocking compound
Method: A panel of Candida clinical isolates (including azole-resistant species) plus single isolates of Aspergillus fumigates, were used to evaluate the activity of the test compounds in vitro. Inocula were prepared as broth cultures (yeasts) or as suspensions of fungal material made from agar slope cultures (molds). The test compounds were pipetted from DMSO stock solution into water to provide a series of […] dilutions. […] (other fungi). Growth in the microcultures was measured by its optical density (OD) measured at a wavelength of 405 nm. The OD for cultures with test compounds was calculated as a percentage of the control, drug-free OD. Inhibition of growth to 35% of control or less was recorded as significant inhibition (Table 2).

[1] = no blocking compound, CYG medium, 2 days at 37° C., inhibition of growth to 35% of control or less

| Compound | blocking of antifungal action by glutathione and cysteine (zinc finger mechanism) | MIC [1] | Fold Increase | C. albicans MIC + 200 μg/ml cysteine | C. albicans MIC + 200 μg/ml glutathione | MIC |
| --- | --- | --- | --- | --- | --- | --- |
| CN(C)c1ccc(N=O)cc1 [Compound 9, 4-nitroso-N,N-dimethylaniline] | blocked to a somewhat different extent by the two different blocking compounds, but in both cases the effect is significant | – | – | – | – | – |
| Cc1ccccc1N=O [Compound 4, 2-nitrosotoluene] | not blocked by either glutathione or cysteine | 16 µg/mL (≈ 132 µM) | 0 Fold | 16 µg/mL | 16 µg/mL | – |
| O=Nc1ccc2oc(=O)ccc2c1 [Compound 2, 6-nitroso-1,3-benzopyrene] | – | 4 µg/mL (≈ 22.8 µM) | 4 Fold | 16 µg/mL | 16 µg/mL | – |
| O=Nc1ccc(Nc2ccccc2)cc1 [Compound 12, 4-nitrosodiohenylamine] | – | – | 8 Fold | 16 µg/mL | 16 µg/mL | 2 µg/mL (≈ 10.1 µM) |
| c1csc(SSc2cccs2)c1 [Compound 6, di(2-thienyl)disulphide] | – | 8 µg/mL (≈ 34.7 µM) | 2 Fold | 16 µg/mL | 16 µg/mL | – |
